Where no end group is shown, it is not given here.
Columns and labels:
PC12 cells = test: Neurite growth on PC12 cells; assay type: cell-based
Procedure: Biological Activity of Fragments on PC12 cells: The trypsin digested fragments in various concentrations were tested for neurite growth on PC12 cells. Tissue culture plates having 24 wells were seeded with 10^5 PC12 cells in serum free Dulbeco Modified Eagle's medium (DMEM). The results were read after 96 hours for neurite outgrowth.

Anti-β-taipoxin = test: Immunological reaction with anti-β-taipoxin; assay type: binding, mice
Excerpt: This proves that Oxynor peptide-10 is an integral part of the natural β-taipoxin.

[1] = Mitogenic activity of synthetic constructs (deletion series); assay type: cell-based; conditions: constructs of 5 to 21 amino acids compared
Excerpt: Several synthetic constructs were made based on portions of this sequence by deleting one amino acid from one terminal at a time. In this manner, several constructs consisting of 5 to 21 amino acids were made and tested for mitogenic activity. […] […] This peptide is designated hereinafter as Oxynor peptide -10.

[2] = system: 6 mm ischemic skin wounds; test: 6 mm ischemic skin wounds in rat; assay type: in vivo; conditions: 100 μg/ml in hydrogel vehicle once daily; days 7 and 10
Procedure: Natural β-taipoxin and Oxynor peptide-10 were tested against each other in vivo at a concentration of 100 μg/ml in hydrogel vehicle applied once daily to help heal 6 mm ischemic skin wounds in rat. At days 7 and 10 the wounds treated with Oxynor peptide-10 were about 15% smaller in area than the wounds treated with natural β-taipoxin.

4 mm punched wounds = 4 mm punched wounds on the back of mice; assay type: in vivo
Procedure: Experimentally produced 4 mm punched wounds on the back of mice were treated with β taipoxin to compare with Oxynor peptide-10 treatment.

Substance	neurite growth of trypsin digest fragments (PC12 cells; 10^5 PC12 cells, serum free DMEM, read after 96 hours)	immunological reaction with anti-β-taipoxin made in mice (Anti-β-taipoxin)	mitogenic activity [1]	wound area smaller than wounds treated with natural β-taipoxin [2]	neurite growth on PC12 cells (PC12 cells; similar concentrations (2 to 5) in serum-free medium)	closure of wounds (4 mm punched wounds; after six days, PBS controls open)	histological examination of the skin around the wounds (4 mm punched wounds; mice, treated wounds)
KGGSLLNFANLIENDVPIDHM [Oxynor peptide-21]	most neurite growth at the lowest concentration	–	–	–	–	–	–
SLLNFANLIE [Oxynor peptide-10]	–	reacted immunologically	most active	about 15%	produced neurite growth	complete closure of the wounds	epidermis almost like normal skin
Ser Leu Leu Asn Phe (SLLNF; SYNTHESIZED. CORRESPONDS TO POSITIONS 4-8 ABOVE.) [Oxynor peptide-5]	–	–	active, but less active	–	–	–	–

From US7129334B2, “Synthetic peptide and uses for same” (priority 2001, dated 2006)
